Patent US5858994A, “Carbohydrate conjugates as inhibitors of cell adhesion” (priority 1994, dated 1999)
Like-named read-outs stand apart in the source and are kept apart here.

How the values were obtained:
[1] = biological target: T1, P-Selectin (Homo sapiens, UniProt P16109); experiment: Inhibition of HL60 cell adhesion to soluble, recombinant P-selectin (P-selectin-IgG1 fusion protein); format: cell-based
T1 sequence (P16109 42-771): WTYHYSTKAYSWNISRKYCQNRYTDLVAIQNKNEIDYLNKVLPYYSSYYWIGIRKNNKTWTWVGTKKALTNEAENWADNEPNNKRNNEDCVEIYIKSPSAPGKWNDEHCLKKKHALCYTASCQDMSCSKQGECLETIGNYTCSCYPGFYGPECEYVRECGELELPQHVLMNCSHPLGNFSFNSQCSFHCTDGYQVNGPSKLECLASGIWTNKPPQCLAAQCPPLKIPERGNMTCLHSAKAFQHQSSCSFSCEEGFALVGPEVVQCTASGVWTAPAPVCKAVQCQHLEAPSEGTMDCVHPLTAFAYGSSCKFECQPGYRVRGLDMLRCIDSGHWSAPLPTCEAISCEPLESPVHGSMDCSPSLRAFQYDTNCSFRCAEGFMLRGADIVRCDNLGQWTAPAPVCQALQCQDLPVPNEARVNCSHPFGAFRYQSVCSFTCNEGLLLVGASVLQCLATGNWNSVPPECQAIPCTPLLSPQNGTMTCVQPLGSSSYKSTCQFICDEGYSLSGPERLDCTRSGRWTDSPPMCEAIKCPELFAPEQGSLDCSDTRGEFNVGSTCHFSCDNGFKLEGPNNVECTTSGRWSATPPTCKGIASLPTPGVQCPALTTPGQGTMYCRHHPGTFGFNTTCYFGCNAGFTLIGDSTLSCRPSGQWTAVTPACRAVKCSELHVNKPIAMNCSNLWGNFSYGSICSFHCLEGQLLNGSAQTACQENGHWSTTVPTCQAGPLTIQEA
Text: (§1) Carrying out these assays to measure the inhibitory activity of the compounds according to the invention on cell adhesion of promyelocytic cells by means of selecting is described in detail in European Published Application EP 0 601 417.
(§2) In order to test the efficacy of the carbohydrate conjugates on the interaction between the E- and P-selectins (former nomenclature ELAM-1 or GMP-140) with their ligands, an assay is used which in each case is specific only for one of these interactions. The ligands are supplied in their natural form as surface structures on promyelocytic HL60 cells. Since HL60 cells contain ligands and adhesion molecules of very different specificity, the desired specificity of the assay can only be produced by means of the binding component. The binding components used were genetically prepared soluble fusion proteins from the in each case extracytoplasmatic domains of E- or P-selectin and the constant region of a human immunoglobulin of the IgG1 subclass.
Preparation of P-selectin-IgG1
For preparation of the soluble P-selectin-IgG1 fusion protein, the genetic construct "ICD62Rg" published by Aruffo et al., 1991 is used. The further procedure corresponds to the preparation of L-selectin-IgG1 presented under A1.
(§3) 1. 96-well microtiter test plates (Nunc Maxisorb) are incubated at room temperature for 2 hours with 100 μl of a goat anti-human IgG antibody (Sigma) diluted (1+100) in 50 mM Tris pH 9.5. After removing the antibody solution washing is carried out once with PBS.
(§4) 2. 150 μl of the blocking buffer are left in the wells at room temperature for 1 hour. The composition of the blocking buffer is: 0.1% gelatin, 1% BSA, 5% calf serum, 0.2 mM PMSF, 0.02% sodium azide. After removing the blocking buffer washing is carried out once with PBS.
(§5) 3. 100 μl each of cell culture supernatant of appropriately transfected and expressing COS cells are pipetted into the wells. Incubation is carried out at room temperature for 2 hours. After removing the cell culture supernatant washing is carried out once with PBS.
(§6) 4. 20 μl of binding buffer are added to the wells. The binding buffer has the composition: 50 mM HEPES, pH 7.5; 100 mM NaCl; 1 mg/ml BSA; 2 mM MgCl2; 1 mM CaCl2; 3 mM MnCl2; 0.02% sodium azide; 0.2 mM PMSF. 5 μl of the test substance are pipetted into this, mixed by swirling the plate and incubated at room temperature for 10 minutes.
(§7) 5. 50 ml of an HL60 cell culture containing 200,000 cells/ml are centrifuged at 350 g for 4 minutes. The pellet is resuspended in 10 ml of RPMI 1640 and the cells are centrifuged again. For labeling the cells, 50 μg of BCECF-AM (Molecular Probes) are dissolved in 5 μl of anhydrous DMSO; 1.5 ml of RPMI 1640 are then added to the BCECF-AM/DMSO solution. The cells are resuspended using this solution and incubated at 37° C. for 30 minutes. After centrifugation at 350 g for 2 minutes, the labeled cell pellet is resuspended in 11 ml of binding buffer and the resuspended cells are distributed into the microtiter plate wells in 100 μl aliquots. The plate is allowed to stand at room temperature for 10 minutes in order to allow the cells to sediment on the bottom of the test plate. In the course of this, the cells have the opportunity to adhere to the coated plastic.
(§8) 6. To stop the test, the microtiter plate is immersed completely in the stop buffer (25 mM tris, pH 7.5; 125 mM NaCl; 0.1% BSA; 2 mM MgCl2; 1 mM CaCl2; 3 mM MnCl2; 0.02% sodium azide) at an angle of 45°. The stop buffer is removed from the wells by inversion and the procedure is repeated a further two times.
7. Measurement of the BCECF-AM-labeled cells firmly adhering to the wells is carried out in a cytofluorimeter (Millipore) at a sensitivity setting of 4, an excitation wavelength of 485/220 nm and an emission wavelength of 530/250 nm.

[2] = biological target: T2, E-Selectin (Homo sapiens, UniProt P16581); experiment: Inhibition of HL60 cell adhesion to soluble, recombinant E-selectin (E-selectin-IgG1 fusion protein); format: cell-based
T2 sequence (P16581 22-556): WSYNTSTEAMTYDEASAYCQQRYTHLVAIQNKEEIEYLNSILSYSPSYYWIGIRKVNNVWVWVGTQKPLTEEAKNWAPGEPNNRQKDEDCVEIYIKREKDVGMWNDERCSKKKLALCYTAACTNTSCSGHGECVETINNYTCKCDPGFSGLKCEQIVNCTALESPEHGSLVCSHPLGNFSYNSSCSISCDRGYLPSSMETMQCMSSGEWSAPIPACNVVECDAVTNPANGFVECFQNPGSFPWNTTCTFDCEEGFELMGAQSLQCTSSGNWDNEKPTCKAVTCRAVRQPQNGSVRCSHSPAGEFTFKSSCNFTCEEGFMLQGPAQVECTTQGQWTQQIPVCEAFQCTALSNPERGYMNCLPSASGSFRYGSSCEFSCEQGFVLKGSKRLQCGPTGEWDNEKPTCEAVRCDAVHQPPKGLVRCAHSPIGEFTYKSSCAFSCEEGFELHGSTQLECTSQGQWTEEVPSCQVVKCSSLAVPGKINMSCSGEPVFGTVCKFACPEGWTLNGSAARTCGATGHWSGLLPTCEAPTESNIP
Text: as §1, §2
Preparation of L-selectin-IgG1
For the preparation of soluble L-selectin-IgG1 fusion protein, the genetic construct "ELAM-Rg" published by Walz et al., 1990 was used.
For expression, the plasmid DNA was transfected in COS-7 cells (ATCC) by means of DEAE-dextran (Molecular Biology Methods: see Ausubel, F. M., Brent, R., Kingston, R. E., Moore, D. D., Seidman, J. G., Struhl, K. and Smith, J. A. 1990. Current Protocols in Molecular Biology, John Wiley, New York). Seven days after transfection, the culture supernatant is recovered, freed from cells and cell fragments by centrifugation and transferred to 25 mM HEPES pH 7.0, 0.3 mM PMSF, 0.02% sodium azide and stored at +4° C.
as §3, §4, §5, §6, §7, §8

[3] = inhibition of HL60 cell adhesion to soluble, recombinant adhesion molecules, read-out: IC50 P-Selectin
[4] = inhibition of HL60 cell adhesion to soluble, recombinant adhesion molecules, read-out: IC50 E-Selectin

Row | IC50 [1, 3] [µM] | IC50 [2, 4] [µM] | SMILES | also measured
1 | 1500 | – | CC(=O)N[C@H]1[C@H](OCCCCCCNC(=O)CCC(=O)O)O[C@H](CO)[C@@H](O[C@@H]2O[C@H](CO)[C@H](O)[C@H](O[C@]3(C(=O)O)C[C@H](O)[C@@H](NC(C)=O)[C@H]([C@H](O)[C@H](O)CO)O3)[C@H]2O)[C@@H]1O[C@@H]1O[C@@H](C)[C@@H](O)[C@@H](O)[C@@H]1O [Compound I-7] | –
2 | 2000 | – | CC(=O)N[C@H]1[C@H](OCCCCCCN)O[C@H](CO)[C@@H](O[C@@H]2O[C@H](CO)[C@H](O)[C@H](O[C@]3(C(=O)O)C[C@H](O)[C@@H](NC(C)=O)[C@H]([C@H](O)[C@H](O)CO)O3)[C@H]2O)[C@@H]1O[C@@H]1O[C@@H](C)[C@@H](O)[C@@H](O)[C@@H]1O [III (n = 6), reference compound] | –
3 | – | 1200 | CC(=O)N[C@H]1[C@H](OCCCCCCNC(=O)[C@@H](N)CCC(=O)O)O[C@H](CO)[C@@H](O[C@@H]2O[C@H](CO)[C@H](O)[C@H](O[C@]3(C(=O)O)C[C@H](O)[C@@H](NC(C)=O)[C@H]([C@H](O)[C@H](O)CO)O3)[C@H]2O)[C@@H]1O[C@@H]1O[C@@H](C)[C@@H](O)[C@@H](O)[C@@H]1O [Compound I-6] | –

Continued, compound first:

Row | SMILES | IC50 [1, 3] [µM] | IC50 [2, 4] [µM] | also measured
4 | CC(=O)N[C@H]1[C@H](OCCCCCCNC(=O)C2CCC(CN3C(=O)C=CC3=O)CC2)O[C@H](CO)[C@@H](O[C@@H]2O[C@H](CO)[C@H](O)[C@H](O[C@]3(C(=O)O)C[C@H](O)[C@@H](NC(C)=O)[C@H]([C@H](O)[C@H](O)CO)O3)[C@H]2O)[C@@H]1O[C@@H]1O[C@@H](C)[C@@H](O)[C@@H](O)[C@@H]1O (stereo partly shown) [Compound I-9] | 330 | – | –
5 | CC(=O)N[C@H]1[C@H](OCCCCCCNC(=O)CCSSc2ccccn2)O[C@H](CO)[C@@H](O[C@@H]2O[C@H](CO)[C@H](O)[C@H](O[C@]3(C(=O)O)C[C@H](O)[C@@H](NC(C)=O)[C@H]([C@H](O)[C@H](O)CO)O3)[C@H]2O)[C@@H]1O[C@@H]1O[C@@H](C)[C@@H](O)[C@@H](O)[C@@H]1O [Compound I-10] | 400 | 390 | –
6 | CC(=O)N[C@@H]1[C@@H](O[C@@H]2O[C@@H](C)[C@@H](O)[C@@H](O)[C@@H]2O)[C@H](O[C@@H]2O[C@H](CO)[C@H](O)[C@H](O[C@]3(C(=O)O)C[C@H](O)[C@@H](NC(C)=O)[C@H]([C@H](O)[C@H](O)CO)O3)[C@H]2O)[C@@H](CO)O[C@H]1NC(=O)[C@H](C)NC(=O)[C@H](CC(=O)O)NC(=O)CNC(=O)[C@@H](N)CCCNC(=N)N [Compound I-2] | – | – | IC50 [1]: 10 µM; IC50 [2]: > 800 µM
7 | CCCCCCCCCCCCCCCC(=O)N[C@@H](CSCC(COC(=O)CCCCCCCCCCCCCCC)OC(=O)CCCCCCCCCCCCCCC)C(=O)NCCCCCCO[C@@H]1O[C@H](CO)[C@@H](O[C@@H]2O[C@H](CO)[C@H](O)[C@H](O[C@]3(C(=O)O)C[C@H](O)[C@@H](NC(C)=O)[C@H]([C@H](O)[C@H](O)CO)O3)[C@H]2O)[C@H](O[C@@H]2O[C@@H](C)[C@@H](O)[C@@H](O)[C@@H]2O)[C@H]1NC(C)=O (stereo partly shown) [Compound I-13] | 100 | 20 | –
8 | CC(=O)N[C@H]1[C@H](OCCCCCCNC(=O)CCC(CCC(=O)NCCCCCCO[C@@H]2O[C@H](CO)[C@@H](O[C@@H]3O[C@H](CO)[C@H](O)[C@H](O[C@]4(C(=O)O)C[C@H](O)[C@@H](NC(C)=O)[C@H]([C@H](O)[C@H](O)CO)O4)[C@H]3O)[C@H](O[C@@H]3O[C@@H](C)[C@@H](O)[C@@H](O)[C@@H]3O)[C@H]2NC(C)=O)(CCC(=O)NCCCCCCO[C@@H]2O[C@H](CO)[C@@H](O[C@@H]3O[C@H](CO)[C@H](O)[C@H](O[C@]4(C(=O)O)C[C@H](O)[C@@H](NC(C)=O)[C@H]([C@H](O)[C@H](O)CO)O4)[C@H]3O)[C@H](O[C@@H]3O[C@@H](C)[C@@H](O)[C@@H](O)[C@@H]3O)[C@H]2NC(C)=O)[N+](=O)[O-])O[C@H](CO)[C@@H](O[C@@H]2O[C@H](CO)[C@H](O)[C@H](O[C@]3(C(=O)O)C[C@H](O)[C@@H](NC(C)=O)[C@H]([C@H](O)[C@H](O)CO)O3)[C@H]2O)[C@@H]1O[C@@H]1O[C@@H](C)[C@@H](O)[C@@H](O)[C@@H]1O [II-2] | – | – | IC50 ([1]; read-out: IC50 P-Selectin, inhibition of HL60 cell adhesion to soluble, recombinant adhesion molecules): 140 µM; IC50 ([2]; read-out: IC50 E-Selectin, inhibition of HL60 cell adhesion to soluble, recombinant adhesion molecules): 130 µM
9 | CC(=O)N[C@H]1[C@H](OCCCCCCNC(=O)CCCC[C@@H]2SC[C@@H]3NC(=O)N[C@@H]32)O[C@H](CO)[C@@H](O[C@@H]2O[C@H](CO)[C@H](O)[C@H](O[C@]3(C(=O)O)C[C@H](O)[C@@H](NC(C)=O)[C@H]([C@H](O)[C@H](O)CO)O3)[C@H]2O)[C@@H]1O[C@@H]1O[C@@H](C)[C@@H](O)[C@@H](O)[C@@H]1O [Compound I-11] | 600 | – | –
